“Also recorded” adds a separate entry of the source. Where no end group is shown, it is not given here.
Assays:
[1] = tested on: GHSR labeled with 7H4MC-ethylglycine at F272^6.44; assay: Hydration parameter H from 7H4MC fluorescence emission; format: biochemical, human; settings: for H parameter: 6.44
Excerpt: (§1) We then investigated whether the fluorescence properties of 7H4MC-ethylglycine could report on the local hydration features of GHSR. To this end, we analyzed the 7H4MC emission profile for each of the positions considered. An excitation wavelength of 320 nm was systematically used to excite the neutral form of the fluorophore ([Amaro et al., 2015]). The emission spectra were deconvoluted into their separate components using the procedure initially described ([Amaro et al., 2015]). A hydration parameter H was then determined that corresponded to the sum of the contributions of the anionic and tautomer forms. This parameter is an indicator of the extent of hydration at the position considered, as the higher the H parameter the higher local hydration ([Amaro et al., 2015]). A difference in the H parameter inferred for the 7H4MC probe at the different positions of the apo GHSR was observed depending on the position considered (Figure 2—figure supplement 1, 2).
(§2) Figure 2. Local hydration of growth hormone secretagogue receptor (GHSR) as a function of ligands. […] All ligands were used at a 10 µM concentration. In all cases, the data represents the mean value ± SD of three experiments. Statistical analyses are provided in […]—figure supplement 2 and 4. Figure 2—source data 1. H parameter for GHSR and its mutants. Figure 2—figure supplement 1. Emission spectra of L-(7-hydroxycoumarin-4-yl) (7H4MC)-ethylglycine incorporated into isolated growth hormone secretagogue receptor (GHSR). The spectra were recorded in the absence of ligand. The labeling positions are given in a snake-like plot of GHSR ([Shiimura et al., 2020]) (A) (red: positions deleterious to GHSR function; green: positions considered in this work), and then indicated in each panel (B–F). The excitation wavelength was set to 320 nm with an emission intensity recorded between 340 and 600 nm. The gray curve represents the experimental emission spectrum (exp). The red, blue, green, and magenta spectra represent the decomposition of the experimental spectrum into its neutral (N), complexed (C), anionic (A), and tautomeric (T) components, respectively. The orange curve (fit) corresponds to sum of the individual N, C, A, and T curves. Figure 2—figure supplement 1—source data 1. 7-H4MC emission intensity of the apo GHSR mutants. [drawing 7] Figure 2—figure supplement 2. Statistical analysis of the data in Figure 2. […] Data is from Figure 2. […] Structure of the ligands used throughout this work. [drawing 9] Figure 2—figure supplement 4. Statistical analysis of the data in Figure 2. The left panels show the hydration parameter for each of the mutants in the absence or in the presence of ligands. Data are from Figure 2. The right panels show the mean difference between the apo and the ligand-loaded states for each of the mutants with multiplicity-adjusted 95% confidence intervals. [drawing 10] Figure 2—figure supplement 5. Emission spectra of L-(7-hydroxycoumarin-4-yl) (7H4MC)-ethylglycine incorporated at position 5.58 of growth hormone secretagogue receptor (GHSR) in the presence of pharmacologically distinct ligands or phosphatidylinositol-4,5-bisphosphate (PIP2). […] The excitation wavelength was set to 320 nm with an emission intensity recorded between 340 and 600 nm. The black curve represents the experimental emission spectrum (exp). The red one (fit) corresponds to sum of the individual curves after decomposition of the experimental spectrum into its neutral, complexed, anionic, and tautomeric components. Figure 2—figure supplement 5—source data 1. 7-H4MC emission intensity of the GHSR 5.58 mutant in the presence of ligands. [drawing 11] Figure 2—figure supplement 6. […]

[2] = tested on: GHSR labeled with 7H4MC-ethylglycine at I134^3.43; assay: as above; format: biochemical, human; settings: ligand 10 µM, POPC:POPG nanodiscs, 15°C, ex 320 nm
Excerpt: as §1, §2

[3] = tested on: GHSR labeled with 7H4MC-ethylglycine at S315^7.45; assay: as above; format: biochemical, human; settings: ligand 10 µM, POPC:POPG nanodiscs, 15°C, ex 320 nm
Excerpt: as §1, §2

[4] = tested on: GHSR labeled with 7H4MC-ethylglycine at V268^6.40; assay: as above; format: biochemical, human; settings: for H parameter: 6.4, ligand 10 µM, POPC:POPG nanodiscs, 15°C, ex 320 nm
Excerpt: as §1, §2

[5] = tested on: GHSR labeled with 7H4MC-ethylglycine at Y232^5.58; assay: as above; format: biochemical, human; settings: for H parameter: 5.58
Excerpt: as §1, §2

7H4MC-labeled GHSR = assay: Hydration parameter H from 7H4MC fluorescence emission, several positions together; format: biochemical, human; settings: positions besides 5.58 and 6.44; saturating ligand (10 µM); vs apo
Excerpt: as §1
Figure 2. Local hydration of growth hormone secretagogue receptor (GHSR) as a function of ligands. […] All ligands were used at a 10 µM concentration. […] The spectra were recorded in the absence of ligand. […] The excitation wavelength was set to 320 nm with an emission intensity recorded between 340 and 600 nm. […] The excitation wavelength was set to 320 nm with an emission intensity recorded between 340 and 600 nm. […]

[6] = tested on: GHSR labeled with 7H4MC-ethylglycine at W215^5.41; assay: Ligand binding and activation of W215^5.41-labeled receptor; format: biochemical, human; settings: basal activity markedly decreased
[7] = tested on: GHSR labeled at I134^3.43, Y232^5.58, V268^6.40, F272^6.44, and S315^7.45; assay: Effect of 7H4MC-ethylglycine labeling on ghrelin binding and Gq activation; format: biochemical, human; settings: positions I134^3.43, Y232^5.58, V268^6.40, F272^6.44, S315^7.45
GHSR F272^6.44 mutants = settings: ref Valentin-Hansen et al., 2012, cited from earlier work
Excerpt: The fluorescent probe was introduced at different positions along GHSR sequence. […] The absence of major effect on substituting F272^6.44 with 7H4MC-ethylglycine on GHSR functioning was puzzling, as mutating this residue to an ala ...

GHSR = settings: ref M'Kadmi et al., 2015; cited from earlier work
isolated GHSR = settings: ghrelin versus SPA; ref Mary et al., 2012; cited from earlier work
Excerpt: We then used 7H4MC fluorescence to monitor the impact of ligand binding on the hydration pattern of GHSR.

[8] = ligand 10 µM, POPC:POPG nanodiscs, 15°C, ex 320 nm, replicate 1
[9] = ligand 10 µM, POPC:POPG nanodiscs, 15°C, ex 320 nm, replicate 2
[10] = ligand 10 µM, POPC:POPG nanodiscs, 15°C, ex 320 nm, replicate 3
[11] = Figure 5, 10 µM ghrelin, 2.5% PIP2-to-total lipids molar ratio, replicate 1
[12] = Figure 5, 10 µM ghrelin, 2.5% PIP2-to-total lipids molar ratio, replicate 2
[13] = Figure 5, 10 µM ghrelin, 2.5% PIP2-to-total lipids molar ratio, replicate 3
[14] = Figure 5, 10 µM ghrelin, no PIP2, replicate 1
[15] = Figure 5, 10 µM ghrelin, no PIP2, replicate 2
[16] = Figure 5, 10 µM ghrelin, no PIP2, replicate 3
[17] = saturating ligand (10 µM), vs apo

Substance: ghrelin: natural full agonist of GHSR, natural peptide agonist (GSSFLSPEHQRVQQRKESKKPPAKLQPR; not fully specified; ends and bridges not checked; UniProt Q9UBU3 24-51, looked up)
- H parameter [1, 8]: 21.07
- H parameter [1, 9]: 20.32
- H parameter [1, 10]: 19.11
- H parameter [1, 11]: 15.658
- H parameter [1, 12]: 15.178
- H parameter [1, 13]: 13.342
- H parameter [1, 14]: 18.095
- H parameter [1, 15]: 20.174
- H parameter [1, 16]: 21.958
- change in the hydration parameter at position 6.44 upon binding [1, 17]: local hydration at position 6.44 decreased
- H parameter ([2]; replicate 1): 68.24
- H parameter ([2]; replicate 2): 63.92
- H parameter ([2]; replicate 3): 67.2
- H parameter ([3]; replicate 1): 24.96
- H parameter ([3]; replicate 2): 23.88
- H parameter ([3]; replicate 3): 21.19
- H parameter ([4]; replicate 1): 61.86
- H parameter ([4]; replicate 2): 65.16
- H parameter ([4]; replicate 3): 62.17
- change in the hydration parameter at V268^6.40 [4, 17]: no change was observed for V268^6.40
- H parameter [5, 8]: 48.83
- H parameter [5, 9]: 49.38
- H parameter [5, 10]: 47.22
- H parameter [5, 11]: 60.136
- H parameter [5, 12]: 58.145
- H parameter [5, 13]: 61.325
- H parameter [5, 14]: 49.568
- H parameter [5, 15]: 47.078
- H parameter [5, 16]: 48.124
- change in the hydration parameter at position 5.58 upon binding [5, 17]: increase in the hydration parameter at position 5.58
- change in the hydration parameter at other positions (7H4MC-labeled GHSR): no relevant change in the hydration parameter
- ligand binding and activation of W215^5.41 mutant [6]: could still bind its ligands and be activated by ghrelin
- effect of labeling on ghrelin binding and receptor-catalyzed Gq activation [7]: essentially neutral with regard to the ability of the receptor to bind ghrelin and activate Gq; also recorded: affected neither ghrelin binding nor the receptor-catalyzed Gq activation in a relevant manner
- ghrelin-induced signaling, F272^6.44 to alanine (GHSR F272^6.44 mutants; mutating F272^6.44 to alanine): reduce ghrelin-induced signaling
- basal- and ghrelin-induced GHSR activity, F272^6.44 to tyrosine (GHSR F272^6.44 mutants; replacing phenylalanine with tyrosine, compared with alanine): far lower impact on both basal- and ghrelin-induced GHSR activity
- pharmacological class (GHSR): natural full agonist
- effect of ghrelin and SPA on GHSR activation and conformational landscape (isolated GHSR): opposite effect of ghrelin and SPA on GHSR activation and conformational landscape

— article PMC8416020 (eLife, 2021)
